Like-named read-outs stand apart in the source and are kept apart here.
Columns and labels:
[1] = system: B054 cells (baboon smooth muscle cells); assay: cells; type: cell-based
[2] = system: Vascular smooth muscle cells (BO54); assay: Scratch-migration assay with morphological toxicity grading; type: cell-based, baboon; design: key: - = no toxicity; +1 = minimal; +2 = mild; +3 = moderate; +4 = marked toxicity
Method: Scratch assays to determine the extent of smooth muscle cell migration inhibition by cytochalasin B were performed in accordance with the following protocol:
Vascular smooth muscle cells (BO54) were derived from explants of baboon aortic smooth muscle, as described in Example 1. The cells were grown in flat bottom, six well tissue culture plates, which hold about 5 ml of medium. The vascular smooth muscle cells were plated at 200,000 cells/well and placed at 37°C in a humidified 5% CO2 incubator for 18 hours. The wells were then scratched with a sterile portion of a single edge razor blade that was held by clamp or pliers and was brought aseptically into contact with the bottom of the well at a 90° angle. The cells from a small area along the scratch were removed by a sterile cotton tipped applicator while the blade was in contact with the bottom of the well. After incubation, the presence of cells in the "scratched" area is indicative of cell migration across the scratch line.
Briefly, a stock solution of cytochalasin B (Sigma Chemical Co.) in dimethyl sulfoxide (DMSO) at 1 mg/ml was prepared. Test dilutions of cytochalasin B or control medium were added. Each experiment included two sets of plates: • A set: Test agent exposure for 1, 3, 6, 8 and 10 days only; and • B set: Test agent exposure for 1, 3, 6, 8 and 10 days, followed by a seven day recovery time with control medium. Both sets of plates were fixed (10% formalin in PBS) and stained (0.02% crystal violet) at the end of the timed exposures. Test concentrations for cytochalasin B were 1, 0.1 and 0.01 µg/ml, and a negative medium control was included. Fresh medium and drug were supplied 3 times per week.
In this Table, "M" indicates Migration Grade, wherein - = no migration; +1 = minimal; +2 = mild; +3 = moderate; and +4 = marked (maximum density; limit of cell contact inhibition) migration of vascular smooth muscle cells into the cleared area adjacent to the scratch. In this Table, "T" denotes a morphological Toxicity Grade, wherein - = no toxicity; +1 = minimal; +2 = mild; +3 = moderate; and +4 = marked toxicity. The migration results are expressed as "Grade in the Cleared Area of the Well / Grade in an Undisturbed Region of the Well." The toxicity values represent a grade for all cells in each well.

[3] = system: vascular smooth muscle cells; type: in vivo, pig; settings: 4 days post-trauma
[4] = system: Balloon traumatized pig arteries; settings: in vivo
[5] = system: Vascular smooth muscle cells
[6] = system: B054 cells (baboon smooth muscle cells); assay: cells; type: cell-based; remark: listed apart in the source

cytochalasin B
minimum effective dose (MED), DNA assay ([1]; 5 minute exposure): 10 µg/mL
minimum effective dose (MED), DNA synthesis assay ([1]; 24 hour exposure): 0.1 µg/mL
morphological Toxicity Grade ([2]; 7-day Recovery Post Exposure, 0.01 µg/mL, Day 1): -
morphological Toxicity Grade ([2]; 7-day Recovery Post Exposure, 0.01 µg/mL, Day 3): -
morphological Toxicity Grade ([2]; 7-day Recovery Post Exposure, 0.01 µg/mL, Day 6): -
morphological Toxicity Grade ([2]; 7-day Recovery Post Exposure, 0.01 µg/mL, Day 8): -
morphological Toxicity Grade ([2]; 7-day Recovery Post Exposure, 0.01 µg/mL, Day 10): -
morphological Toxicity Grade ([2]; 7-day Recovery Post Exposure, 0.1 µg/mL, Day 1): -
morphological Toxicity Grade ([2]; 7-day Recovery Post Exposure, 0.1 µg/mL, Day 3): -
morphological Toxicity Grade ([2]; 7-day Recovery Post Exposure, 0.1 µg/mL, Day 6): -
morphological Toxicity Grade ([2]; 7-day Recovery Post Exposure, 0.1 µg/mL, Day 8): -
morphological Toxicity Grade ([2]; 7-day Recovery Post Exposure, 0.1 µg/mL, Day 10): -
morphological Toxicity Grade ([2]; Continuous Exposure, 0.01 µg/mL, Day 1): -
morphological Toxicity Grade ([2]; Continuous Exposure, 0.01 µg/mL, Day 3): -
morphological Toxicity Grade ([2]; Continuous Exposure, 0.01 µg/mL, Day 6): -
morphological Toxicity Grade ([2]; Continuous Exposure, 0.01 µg/mL, Day 8): -
morphological Toxicity Grade ([2]; Continuous Exposure, 0.01 µg/mL, Day 10): -
morphological Toxicity Grade ([2]; Continuous Exposure, 0.1 µg/mL, Day 1): -
morphological Toxicity Grade ([2]; Continuous Exposure, 1.0 µg/mL, Day 6): +4
morphological Toxicity Grade ([2]; Continuous Exposure, 1.0 µg/mL, Day 8): +4
morphological Toxicity Grade ([2]; Continuous Exposure, 1.0 µg/mL, Day 10): +4
BRDU labeling grade [3]: 4 (4 = > 10/HPF)
lumen area in the test region compared to the normal control segment of the same artery [4]: approximately two times
luminal area compared to arteries treated with other test agents or controls [4]: larger luminal area
toxicity to the vascular smooth muscle cells [4]: appeared to be toxic
morphological cytotoxicity grade ([5]; 0.01ug, 24 hrs + 24 hrs): 0
morphological cytotoxicity grade ([5]; 0.01ug, 24 hrs + 48 hrs): 0
morphological cytotoxicity grade ([5]; 0.01ug, 24 hrs + 72 hrs): 0
morphological cytotoxicity grade ([5]; 0.01ug, 24 hrs + 96 hrs): 0
morphological cytotoxicity grade ([5]; 0.01ug, 24 hrs + 120 hrs): 0
morphological cytotoxicity grade ([5]; 0.01ug, Continuous 6 hrs): 0
morphological cytotoxicity grade ([5]; 0.01ug, Continuous 24 hrs (r11, 24 hr exposure series)): 0
morphological cytotoxicity grade ([5]; 0.01ug, Continuous 24 hrs (r17, long term continuous series)): 0
morphological cytotoxicity grade ([5]; 0.01ug, Continuous 48 hrs): 0
morphological cytotoxicity grade ([5]; 0.01ug, Continuous 72 hrs): 0
morphological cytotoxicity grade ([5]; 0.01ug, Continuous 96 hrs): 0
morphological cytotoxicity grade ([5]; 0.01ug, Continuous 120 hrs): 0
morphological cytotoxicity grade ([5]; 0.01ug, Continuous 168 hrs): 0
morphological cytotoxicity grade ([5]; 0.01ug, Continuous 216 hrs): 0
morphological cytotoxicity grade ([5]; 0.01ug, Continuous 264 hrs): 0
morphological cytotoxicity grade ([5]; 0.1 ug, 5 min + 2 hrs): 0
morphological cytotoxicity grade ([5]; 0.1 ug, 5 min + 6 hrs): 0
morphological cytotoxicity grade ([5]; 0.1 ug, 5 min + 24 hrs): 0
morphological cytotoxicity grade ([5]; 0.1 ug, 5 min + 48 hrs): 0
morphological cytotoxicity grade ([5]; 0.1 ug, 5 min + 72 hrs): 0
morphological cytotoxicity grade ([5]; 0.1 ug, 5 min + 96 hrs): 0
morphological cytotoxicity grade ([5]; 0.1 ug, 5 min + 120 hrs): 0
morphological cytotoxicity grade ([5]; 0.1 ug, 24 hrs + 24 hrs): 0.5
morphological cytotoxicity grade ([5]; 0.1 ug, 24 hrs + 48 hrs): 1
morphological cytotoxicity grade ([5]; 0.1 ug, 24 hrs + 72 hrs): 0.5
morphological cytotoxicity grade ([5]; 0.1 ug, 24 hrs + 96 hrs): 0
morphological cytotoxicity grade ([5]; 0.1 ug, 24 hrs + 120 hrs): 0
morphological cytotoxicity grade ([5]; 0.1 ug, Continuous 6 hrs): 0
morphological cytotoxicity grade ([5]; 0.1 ug, Continuous 24 hrs (r11, 24 hr exposure series)): 1
morphological cytotoxicity grade ([5]; 0.1 ug, Continuous 24 hrs (r17, long term continuous series)): 0
morphological cytotoxicity grade ([5]; 0.1 ug, Continuous 48 hrs): 1
morphological cytotoxicity grade ([5]; 0.1 ug, Continuous 72 hrs): 1
morphological cytotoxicity grade ([5]; 0.1 ug, Continuous 96 hrs): 2
morphological cytotoxicity grade ([5]; 0.1 ug, Continuous 120 hrs): 1
morphological cytotoxicity grade ([5]; 0.1 ug, Continuous 168 hrs): 1
morphological cytotoxicity grade ([5]; 0.1 ug, Continuous 216 hrs): 1
morphological cytotoxicity grade ([5]; 0.1 ug, Continuous 264 hrs): 1
morphological cytotoxicity grade ([5]; 1 ug, 5 min + 2 hrs): 0
morphological cytotoxicity grade ([5]; 1 ug, 5 min + 6 hrs): 1
morphological cytotoxicity grade ([5]; 1 ug, 5 min + 24 hrs): 0.5
morphological cytotoxicity grade ([5]; 1 ug, 5 min + 48 hrs): 1
morphological cytotoxicity grade ([5]; 1 ug, 5 min + 72 hrs): 1
morphological cytotoxicity grade ([5]; 1 ug, 5 min + 96 hrs): 1
morphological cytotoxicity grade ([5]; 1 ug, 5 min + 120 hrs): 1
morphological cytotoxicity grade ([5]; 1 ug, 24 hrs + 24 hrs): 3
morphological cytotoxicity grade ([5]; 1 ug, 24 hrs + 48 hrs): 4
morphological cytotoxicity grade ([5]; 1 ug, 24 hrs + 72 hrs): 4
morphological cytotoxicity grade ([5]; 1 ug, 24 hrs + 96 hrs): 4
morphological cytotoxicity grade ([5]; 1 ug, 24 hrs + 120 hrs): 4
morphological cytotoxicity grade ([5]; 1 ug, Continuous 6 hrs): 3
morphological cytotoxicity grade ([5]; 1 ug, Continuous 24 hrs (r11, 24 hr exposure series)): 3
morphological cytotoxicity grade ([5]; 1 ug, Continuous 24 hrs (r17, long term continuous series)): 3
morphological cytotoxicity grade ([5]; 1 ug, Continuous 48 hrs): 3
morphological cytotoxicity grade ([5]; 1 ug, Continuous 72 hrs): 3
morphological cytotoxicity grade ([5]; 1 ug, Continuous 96 hrs): 3
morphological cytotoxicity grade ([5]; 1 ug, Continuous 120 hrs): 3
morphological cytotoxicity grade ([5]; 1 ug, Continuous 168 hrs): 4
morphological cytotoxicity grade ([5]; 1 ug, Continuous 216 hrs): 4
morphological cytotoxicity grade ([5]; 1 ug, Continuous 264 hrs): 4
cytotoxicity grade ([5]; 1 µg/ml, anti-migration/contraction effective dose, grade 1 = minimal): 1
morphological cytotoxicity grade ([5]; 10 ug, 5 min + 2 hrs): 0.5
morphological cytotoxicity grade ([5]; 10 ug, 5 min + 6 hrs): 4
morphological cytotoxicity grade ([5]; 10 ug, 5 min + 24 hrs): 4
morphological cytotoxicity grade ([5]; 10 ug, 5 min + 48 hrs): 4
morphological cytotoxicity grade ([5]; 10 ug, 5 min + 72 hrs): 4.5
morphological cytotoxicity grade ([5]; 10 ug, 5 min + 96 hrs): 5
morphological cytotoxicity grade ([5]; 10 ug, 5 min + 120 hrs): 5
minimum effective dose (MED), protein synthesis assay ([6]; 5 minute exposure): 10 µg/mL
minimum effective dose (MED), protein synthesis assay ([6]; 24 hour exposure): 1.0 µg/mL
